“And” between values parts separate entries of the source, which are not always exact repeats. Identical values can stand only once. Like-named read-outs stand apart in the source and are kept apart here.
How the values were obtained:
[1] = molecular target: T1, NdmB-His6 (Pseudomonas putida, UniProt H9N290); assay: Methylxanthine N-demethylase assay and kinetics, NdmB-His6 with His6-NdmD; assay type: biochemical, Pseudomonas putida CBB5; details: for N-demethylase activity: NdmB; for Km: 30° C., pH 7.5, ∞ where no activity
T1 construct: made in house; host or cells: E. coli BL21(DE3)
T1 sequence (H9N290 1-355): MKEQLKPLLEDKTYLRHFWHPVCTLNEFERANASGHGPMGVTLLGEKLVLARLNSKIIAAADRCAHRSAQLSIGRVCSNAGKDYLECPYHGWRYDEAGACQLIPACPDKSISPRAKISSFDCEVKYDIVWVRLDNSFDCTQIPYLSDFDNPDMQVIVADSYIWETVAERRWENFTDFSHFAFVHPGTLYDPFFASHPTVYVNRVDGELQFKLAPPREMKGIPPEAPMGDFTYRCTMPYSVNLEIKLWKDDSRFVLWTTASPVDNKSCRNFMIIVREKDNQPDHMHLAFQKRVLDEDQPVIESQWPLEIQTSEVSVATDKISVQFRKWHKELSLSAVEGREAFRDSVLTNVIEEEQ
Experimental: (§1) Methylxanthine N-demethylase activity assay contained, in 1-ml total volume, 0.5 mM methylxanthine, 1 mM NADH, 50 μM Fe(NH4)2(SO4)2, and an appropriate amount of NdmA-His6 or NdmB-His6 (7.4 μg-2.5 mg protein depending on substrate specificity) in 50 mM KPi buffer (pH 7.5). Approximately 4 U of partially purified reductase, prepared as described previously (Summers et al., 2011) or 59 U of purified His6-NdmD was added to reaction mixture. Catalase from bovine liver (4,000 U) was also added to reactions containing His6-NdmD. The reaction mixture was incubated at 30° C. with 300 rpm shaking on an incubating microplate shaker (VWR, Radnor, Pa.). Periodically, a small aliquot was sampled from the reaction mixture and mixed with equal volume of acetonitrile for quantifying concentrations of methylxanthines and N-demethylated products by HPLC. One unit of N-demethylase activity was defined as the consumption of one […] methylxanthine per minute.
(§2) Apparent kinetic parameters of NdmA-His6 and NdmB-His6 were determined by measuring the initial rate of disappearance (vo) of methylxanthines in 50 mM KPi buffer (pH 7.5) at 30° C. The initial substrate concentrations (ESI) used in these experiments were from 25 to 500 μM. Substrates were incubated with His6-NdmD plus either NdmA-His6 or NdmB-His6 under standard conditions for 15 minutes. At 1, 5, 10, and 15 minutes, samples were removed from the reaction mixtures to quantitate substrate concentrations by HPLC. Plots of substrate concentrations against time were used to determine the initial rates of disappearance of substrates which were linear over 15 minutes. The apparent kinetic parameters were determined from Michaelis-Menten plots of vo against [S] fitted with the equation

[2] = molecular target: T2, NdmA-His6 (Pseudomonas putida, UniProt H9N289); assay: Methylxanthine N-demethylase assay and kinetics, NdmA-His6 with His6-NdmD; assay type: biochemical, Pseudomonas putida CBB5
T2 construct: made in house; host or cells: E. coli BL21(DE3)
T2 sequence (H9N289 1-351): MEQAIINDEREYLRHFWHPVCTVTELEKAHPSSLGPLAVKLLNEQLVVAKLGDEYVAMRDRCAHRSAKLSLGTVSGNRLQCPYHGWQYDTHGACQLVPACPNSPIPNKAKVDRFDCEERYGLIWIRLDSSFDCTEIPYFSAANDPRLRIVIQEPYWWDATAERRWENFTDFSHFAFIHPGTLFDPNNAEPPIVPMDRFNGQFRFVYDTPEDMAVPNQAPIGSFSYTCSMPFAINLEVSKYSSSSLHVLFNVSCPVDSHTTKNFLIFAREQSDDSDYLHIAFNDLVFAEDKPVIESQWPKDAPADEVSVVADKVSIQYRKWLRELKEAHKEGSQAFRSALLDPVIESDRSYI
Experimental: as §1, §2

[3] = test system: cell extracts prepared from P. putida CBB5; assay: NADH-dependent N-demethylase activity of CBB5 cell extracts; assay type: biochemical, Pseudomonas putida CBB5; details: 0.5 mM substrate, 7.2 mg mL^−1 protein
[4] = test system: NdmC
[5] = molecular target: T3, N-demethylase (Ndm: NdmA and NdmB subunits) (Pseudomonas putida, UniProt H9N289+H9N290); assay: Methylxanthine N-demethylase activity assay with purified Ndm plus partially purified Ccr; assay type: biochemical, Pseudomonas putida CBB5; details: for Products identified: same products at 500 and 200 μM substrate; for Relative N-demethylase activity: relative to paraxanthine; for O-demethylation by Ndm: prolonged incubation
T3 construct: lane 3, natural Ndm purified from P. putida CBB5; made in house; host or cells: purified from the natural strain Pseudomonas putida CBB5 (DEAE, Phenyl and Q Sepharose); not recombinant
T3 sequence (H9N289 1-351): T2 sequence (H9N289 1-351)
T3 sequence (H9N290 1-355): T1 sequence (H9N290 1-355)
Experimental: Methylxanthine N-demethylase activity assay contained, in 1-mL total volume, 0.5 mM methylxanthine, 1 mM NADH, 50 μM Fe(NH4)2(SO4)2, and an appropriate amount of Ndm (0.08-7.5 mg protein, depending on purity of the protein) in 50 mM KPi buffer. Approximately 4 U of partially purified Ccr was added to reaction mixture when assaying Ndm in Phenyl Sepharose and Q Sepharose eluant-fractions (Ccr was not added to the enzyme reaction mixture when assaying Ndm activity in DEAE Sepharose eluant-fractions because Ccr co-eluted with Ndm). The reaction mixture was incubated at 30° C. with 300 rpm shaking on an incubating microplate shaker (VWR). Periodically, a small aliquot was sampled from the reaction mixture and mixed with equal volume of acetonitrile for quantifying concentrations of methylxanthines and N-demethylated products by HPLC. One unit of N-demethylase activity was defined as the consumption of one μmole methylxanthine per minute. When Ndm was coupled with the reductase and ferredoxin components of naphthalene dioxygenase of Pseudomonas sp. strain 9816 (Haigler & Gibson, 1990a; Haigler & Gibson, 1990b), 30 and 100 μg of the respective proteins were used. Spinach ferredoxin reductase and ferredoxin were also substituted for Ccr as described by Subramanian et al. (1979).
Determination of Kinetic Parameters. Apparent kinetic parameters of Ndm were determined by measuring the initial rate of disappearance (vo) of paraxanthine or 7-methylxanthine in 50 mM KPi buffer (pH 7.5) at 30° C. The paraxanthine and 7-methylxanthine concentrations ([S]) used in these experiments were from 20 to 500 μM. Substrates were incubated with Ndm and Ccr under standard conditions for 15 minutes. At 1, 5, 10, and 15 minutes, samples were removed from the reaction mixtures to quantitate substrate concentrations by HPLC. Plots of substrate concentrations against time were used to determine the initial rates of disappearance of substrates which were linear over 15 minutes. The apparent kinetic parameters were determined from Michaelis-Menten plots of Vo against [S] fitted with the equation
Determination of Oxygen Requirement. Oxygen consumption by Ndm during N-demethylation of paraxanthine was determined in a closed reaction vessel equipped with a Clarke-type oxygen electrode (Digitial Modell 0, Rank Brothers Ltd., Cambridge, England). The electrode was calibrated by using glucose oxidase (Sigma) and glucose for consumption of oxygen. Ndm activity assay was performed at 30° C. in a total volume of 1 ml of air-saturated 50 mM KPi buffer (pH 7.5) with 100 μM paraxanthine, 200 μM NADH, 50 μM Fe(NH4)2(SO4)2, 0.2 mg purified Ndm, and 4 U partially purified Ccr. The reaction was initiated by adding Ndm and partially purified Ccr after equilibration of all other reaction components for 3.3 minutes. After 13 minutes, a 100-μL aliquot was withdrawn from the reaction, immediately mixed with equal volume of acetonitrile to stop the enzyme reaction, and analyzed for N-demethylation product by HPLC. Background oxygen consumption, possibly due to NADH oxidase enzyme activity in the partially purified Ccr, was quantitated in control reactions containing all reaction components except paraxanthine.
Formaldehyde Determination. […] Twenty μL Nash reagent was added to 50 μl Ndm reaction sample plus 50 μl acetonitrile. This mixture was incubated at 51° C. for 12 minutes.

[6] = molecular target: T4, Caffeine dehydrogenase (Cdh) from CBB1 (Pseudomonas sp., UniProt D7REY3); details: cited from earlier work
T4 sequence (D7REY3 1-791): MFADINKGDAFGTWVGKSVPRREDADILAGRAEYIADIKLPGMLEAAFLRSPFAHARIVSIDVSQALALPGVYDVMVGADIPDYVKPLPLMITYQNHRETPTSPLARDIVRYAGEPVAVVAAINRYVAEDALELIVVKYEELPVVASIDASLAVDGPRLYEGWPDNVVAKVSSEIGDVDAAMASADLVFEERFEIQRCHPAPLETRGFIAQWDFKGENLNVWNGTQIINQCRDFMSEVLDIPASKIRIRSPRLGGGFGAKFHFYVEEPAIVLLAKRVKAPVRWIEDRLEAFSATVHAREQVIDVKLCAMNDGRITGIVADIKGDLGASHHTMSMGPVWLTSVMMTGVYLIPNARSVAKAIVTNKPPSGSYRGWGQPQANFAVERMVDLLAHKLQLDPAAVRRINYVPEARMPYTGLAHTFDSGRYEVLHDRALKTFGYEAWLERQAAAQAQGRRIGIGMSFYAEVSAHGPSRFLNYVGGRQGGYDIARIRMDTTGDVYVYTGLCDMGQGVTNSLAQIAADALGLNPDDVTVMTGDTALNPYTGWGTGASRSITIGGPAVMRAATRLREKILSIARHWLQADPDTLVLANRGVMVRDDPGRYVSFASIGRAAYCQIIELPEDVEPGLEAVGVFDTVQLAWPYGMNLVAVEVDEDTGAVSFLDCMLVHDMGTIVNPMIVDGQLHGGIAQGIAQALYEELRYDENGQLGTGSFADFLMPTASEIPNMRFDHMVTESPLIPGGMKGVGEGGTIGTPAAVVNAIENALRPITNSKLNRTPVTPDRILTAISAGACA
T4 sequence (D7REY4 1-295 partner): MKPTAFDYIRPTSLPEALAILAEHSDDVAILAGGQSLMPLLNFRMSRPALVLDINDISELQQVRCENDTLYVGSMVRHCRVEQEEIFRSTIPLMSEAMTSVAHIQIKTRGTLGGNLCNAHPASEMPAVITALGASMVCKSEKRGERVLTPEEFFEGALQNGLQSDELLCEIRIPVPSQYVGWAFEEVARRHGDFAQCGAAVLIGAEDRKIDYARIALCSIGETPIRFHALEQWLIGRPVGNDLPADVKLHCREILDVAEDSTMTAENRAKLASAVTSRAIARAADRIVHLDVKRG
T4 sequence (D7REY5 1-167 partner): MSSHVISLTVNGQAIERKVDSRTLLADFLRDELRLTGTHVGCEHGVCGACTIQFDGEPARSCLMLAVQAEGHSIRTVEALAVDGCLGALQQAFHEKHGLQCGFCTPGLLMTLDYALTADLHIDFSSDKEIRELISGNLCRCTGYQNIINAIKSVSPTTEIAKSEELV

[7] = 100 μM paraxanthine, 0.2 mg Ndm, 4 U Ccr, after 13 minutes

With `Cn1c(=O)[nH]c2nc[nH]c2c1=O` [1-methylxanthine] the “N-demethylase activity” value [1] was “no activity”, the Km ([1]; NdmB-His6) was “∞” and the “catalytic efficiency relative to theophylline” value ([2]; NdmA) was “two orders of magnitude lower”. The Product ([2]; NdmA-His6) was “Xanthine”.
With `Cn1c(=O)[nH]c2ncn(C)c2c1=O` [Paraxanthine, 1,7-dimethylxanthine] the “N-demethylase activity” value [1] was “no activity”, the Km ([1]; NdmB-His6) was “∞” and the “time to complete utilization” value ([3]; 0.5 mM NADH) was “about 20 minutes”. The “N-demethylation by NdmC fraction” value [4] was “not N-demethylated”, the “oxygen consumed during N-demethylation” value [5, 7] was 79.5 µM and the “paraxanthine N-demethylated” value [5, 7] was 60.2 µM. The Products identified [5] was “xanthine and 7-methylxanthine,”, the “Relative N-demethylase activity” value ([5]; substrate conc. 200 μM) was 100.0 ± 3.7 and the “Relative N-demethylase activity” value ([5]; substrate conc. 500 μM) was 100.0 ± 3.1.
In the case of `COc1cc(C(=O)O)ccc1O` [vanillate], the “O-demethylation by Ndm” value [5] is reported as “did not catalyze O-demethylation”.
For `O=c1[nH]c(=O)c2[nH]cnc2[nH]1` [xanthine], the “activity of Cdh” value [6] is listed as “no activity and none”, the “product formed from paraxanthine” value ([5]; 7.4 mU / 7.4 units of Ndm, 90 minutes) is listed as 193.7 ± 4.0 µM and 193.7 ± 14.0 µM and the N-demethylation product present ([5]; from paraxanthine, after 13 minutes) is listed as about 20.3 µM.
In the case of `COc1cc(C=O)ccc1O` [vanillin], the “O-demethylation by Ndm” value [5] is reported as “did not catalyze O-demethylation”.
For `Cn1c(=O)c2[nH]cnc2n(C)c1=O` [Theophylline, 1,3-dimethylxanthine], the “activity of Cdh” value [6] is listed as “no activity”, the “activity of Cdh” value ([6]; substrate specificity study) is listed as 5% and the “degradation rate compared with paraxanthine” value [3] is listed as “significantly slower”. The Products identified [5] was 1- & 3-methylxanthine, and xanthine, the “Relative N-demethylase activity” value ([5]; substrate conc. 200 μM) was 14.2 ± 1.6 and the “Relative N-demethylase activity” value ([5]; substrate conc. 500 μM) was 17.6 ± 1.0.
For `Cn1c(=O)[nH]c(=O)c2[nH]cnc21` [3-Methylxanthine, 3-methylxanthine], the Product ([1]; NdmB-His6) was “Xanthine”, the “N-demethylase activity” value ([2]; NdmA) was “inactive” and the Km ([2]; NdmA-His6, 30° C., pH 7.5, ∞ where no activity) was “∞”. The Products identified [5] was “xanthine”, the “Relative N-demethylase activity” value ([5]; substrate conc. 200 μM) was 68.9 ± 2.6 and the “Relative N-demethylase activity” value ([5]; substrate conc. 500 μM) was 55.2 ± 6.0.

From patent US8951752B2, “N-demethyase genes and uses thereof” (priority 2011, dated 2015)
